# Reference: ChEMBL document CHEMBL5608168, “An overview of PROTACs targeting MDM2 as a novel approach for cancer therapy” (Eur J Med Chem, 2024)
# How the values were obtained:
# [1] = tested on: A549; assay: Induction of apoptosis in human A549 cells assessed as apoptotic rate at 5 uM incubated for 24 hrs by Annexin V-FITC staining based flow cytometry relative to control; format: functional
# [2] = Antiproliferative activity against human Triple-negative breast cancer cell; format: functional, cell-based; conditions: Breast carcinoma cell
# [3] = Metabolic stability in mouse liver microsomes assessed as half life; format: ADME, Microsome
# [4] = tested on: A549; assay: Anticancer activity against human A549 cells assessed as reduction in cell growth incubated for 72 hrs by CCK-8 assay; format: functional, cell-based; conditions: A549, 72 h
# [5] = tested on: A549; assay: Antitumor activity against human A549 cells xenografted in BALB/c nude mouse assessed as tumor growth inhibition at 30 mg/kg, ip administered twice daily for 21 days relative to control; format: functional; conditions: A549, 504 h, time 21 day, read-out: TGI
# [6] = Terminal half life in Sprague-Dawley rat at 2 mg/kg, iv by LC-MS/MS analysis; format: ADME, organism-based; conditions: in vivo
# [7] = tested on: MOLM-13; assay: Antiproliferative activity against human MOLM-13 assessed as reduction in cell viability; format: functional, cell-based
# [8] = Antiproliferative activity against human derived Acute myeloid leukemic cells assessed as reduction in cell viability incubated for 48 hr by CellTiter-Glo assay; format: functional, cell-based; conditions: Leukemia cell
# [9] = target: E3 ubiquitin-protein ligase Mdm2 (Homo sapiens, UniProt Q00987); assay: Homo-PROTAC activity at MDM2 in human A549 cells assessed as self ubiquitination mediated protein degradation by Western Blot analysis; format: cell-based
# Chain of E3 ubiquitin-protein ligase Mdm2 (Q00987 whole entry): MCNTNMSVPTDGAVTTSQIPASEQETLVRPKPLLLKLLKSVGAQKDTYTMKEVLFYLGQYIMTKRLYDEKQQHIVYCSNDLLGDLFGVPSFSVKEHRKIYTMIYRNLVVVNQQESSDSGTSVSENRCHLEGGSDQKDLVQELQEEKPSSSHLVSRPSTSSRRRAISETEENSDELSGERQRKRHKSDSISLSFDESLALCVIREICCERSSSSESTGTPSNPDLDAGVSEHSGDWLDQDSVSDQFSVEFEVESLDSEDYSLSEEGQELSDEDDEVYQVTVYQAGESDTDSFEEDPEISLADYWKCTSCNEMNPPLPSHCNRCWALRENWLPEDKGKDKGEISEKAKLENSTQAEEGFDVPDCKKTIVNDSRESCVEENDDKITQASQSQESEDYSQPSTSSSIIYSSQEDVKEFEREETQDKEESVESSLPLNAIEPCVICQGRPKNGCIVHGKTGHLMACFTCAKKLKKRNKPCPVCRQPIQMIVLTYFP
structure (smiles),measurement,setting,value
C[C@H]1[C@H](C)CC[C@]2(C(=O)NCCOCCOCCOCCNc3cccc4c3C(=O)N(C3CCC(=O)NC3=O)C4=O)CC[C@]3(C)C(=CC[C@@H]4[C@@]5(C)CC[C@H](O)C(C)(C)[C@@H]5CC[C@]43C)[C@H]12 (some centres undefined),Activity,[1],26.74%
CCOc1cc(C(C)(C)C)ccc1C1=N[C@@](C)(c2ccc(Cl)cc2)[C@@](C)(c2ccc(Cl)cc2)N1C(=O)N1CCN(CC(=O)NCCOCCOCCOCC(=O)N[C@H](C(=O)N2C[C@H](O)C[C@H]2C(=O)NCc2ccc(-c3scnc3C)cc2)C(C)(C)C)CC1,IC50,[2],4000 nM
same,half-life,[3],25.9 min
CCOc1cc(C(C)(C)C)ccc1C1=N[C@@H](c2ccc(Cl)cc2)[C@@H](c2ccc(Cl)cc2)N1C(=O)N1CCN(CC(=O)NCCOCCOCCOCCNC(=O)CN2CCN(C(=O)N3C(c4ccc(C(C)(C)C)cc4OCC)=N[C@@H](c4ccc(Cl)cc4)[C@H]3c3ccc(Cl)cc3)CC2=O)C(=O)C1,IC50,[4],580 nM
same,inhibition in vivo at 30 mg/kg,[5],52.4%
same,beta t1/2,[6],576 min
Cc1ncsc1-c1ccc(CNC(=O)[C@@H]2C[C@@H](O)CN2C(=O)[C@@H](NC(=O)CCCCCCCCC(=O)N2CCN(S(=O)(=O)C[C@@H](N3C(=O)[C@@](C)(CC(=O)O)C[C@H](c4cccc(Cl)c4)[C@H]3c3ccc(Cl)cc3)C(C)(C)C)CC2)C(C)(C)C)cc1,IC50,[7],50 nM
same,IC50,[8],40 nM
CCOc1cc(C(C)(C)C)ccc1C1=NC(c2ccc(Cl)cc2)C(c2ccc(Cl)cc2)N1C(=O)N1CCN(CC(=O)NCCOCCOCCOCCNC(=O)CN2CCN(C(=O)N3C(c4ccc(C(C)(C)C)cc4OCC)=NC(c4ccc(Cl)cc4)C3c3ccc(Cl)cc3)CC2=O)C(=O)C1 (racemic),DC50,[9],1010 nM
